Results: ChEMBL document CHEMBL3885881, “DrugMatrix”

Organism: Rattus norvegicus
Assay: DrugMatrix - Regimen: Daily Repeat
Assay type: toxicity, organism-based, Sprague-Dawley
Set-up: regimen Daily Repeat, gender Male, age 6-8 weeks
Conditions: in vivo, po, route oral GAVAGE, vehicle .5 % CMC; for BASOPHIL / EOSINOPHIL / ERYTHROCYTE COUNT / HEMATOCRIT / HEMOGLOBIN / LEUKOCYTE COUNT / LYMPHOCYTE / MEAN CORPUSCULAR HEMOGLOBIN / MEAN CORPUSCULAR HEMOGLOBIN CONCENTRATION / MEAN CORPUSCULAR VOLUME / MONOCYTE / NEUTROPHIL / PLATELET COUNT: tissue Blood; for ALANINE AMINOTRANSFERASE / ALBUMIN / ALKALINE PHOSPHATASE / ASPARTATE AMINOTRANSFERASE / BLOOD UREA NITROGEN / CHLORIDE / CHOLESTEROL / CREATINE PHOSPHOKINASE / CREATININE / GLUCOSE / PHOSPHORUS / POTASSIUM / SODIUM / TOTAL PROTEIN: tissue Plasma
[1] = 0 mg/kg, 72 h, dose level Control, time 3 day
[2] = 0 mg/kg, 120 h, dose level Control, time 5 day
[3] = 28 mg/kg, 72 h, dose level Low, time 3 day
[4] = 28 mg/kg, 120 h, dose level Low, time 5 day
[5] = 2000 mg/kg, 72 h, dose level High, time 3 day
[6] = 2000 mg/kg, 120 h, dose level High, time 5 day

In the case of `CCN1CCN(c2cc3c(cc2F)c(=O)c(C(=O)O)cn3C2CC2)CC1` [ENROFLOXACIN], the BASOPHIL [1] is reported as 0%, the EOSINOPHIL [1] is reported as 0.4% and the “ERYTHROCYTE COUNT” value [1] is reported as 6.43 x10E6/uL. For the same compound, the HEMATOCRIT [1] was 37.36%, the HEMOGLOBIN [1] was 13.98 G/DL and the “LEUKOCYTE COUNT” value [1] was 13 x10E3/uL. The LYMPHOCYTE [1] was 81.4%, the “MEAN CORPUSCULAR HEMOGLOBIN” value [1] was 21.9 pg and the “MEAN CORPUSCULAR HEMOGLOBIN CONCENTRATION” value [1] was 37.4 G/DL. The “MEAN CORPUSCULAR VOLUME” value [1] was 58.52 fL, the MONOCYTE [1] was 0.4% and the NEUTROPHIL [1] was 18%. The “PLATELET COUNT” value [1] was 1386 x10E3/uL, the “ALANINE AMINOTRANSFERASE” value [1] was 39.33 u/L and the ALBUMIN [1] was 3.57 G/DL. For the same compound, the “ALKALINE PHOSPHATASE” value [1] was 283.83 u/L, the “ASPARTATE AMINOTRANSFERASE” value [1] was 69.5 u/L and the “BLOOD UREA NITROGEN” value [1] was 14.83 mg/dL. The CHLORIDE [1] was 107.33 MEQ/L, the CHOLESTEROL [1] was 75.17 mg/dL and the “CREATINE PHOSPHOKINASE” value [1] was 107.67 u/L. For the same compound, the CREATININE [1] was 0.48 mg/dL, the GLUCOSE [1] was 172.5 mg/dL and the PHOSPHORUS [1] was 10.48 mg/dL. For the same compound, the POTASSIUM [1] was 6.9 MEQ/L, the SODIUM [1] was 152.33 MEQ/L and the “TOTAL PROTEIN” value [1] was 5.9 G/DL. The BASOPHIL [2] was 0%, the EOSINOPHIL [2] was 0.4% and the “ERYTHROCYTE COUNT” value [2] was 6.96 x10E6/uL. For the same compound, the HEMATOCRIT [2] was 41.12%, the HEMOGLOBIN [2] was 15.24 G/DL and the “LEUKOCYTE COUNT” value [2] was 11.06 x10E3/uL. For the same compound, the LYMPHOCYTE [2] was 88.6%, the “MEAN CORPUSCULAR HEMOGLOBIN” value [2] was 21.96 pg and the “MEAN CORPUSCULAR HEMOGLOBIN CONCENTRATION” value [2] was 37.1 G/DL. The “MEAN CORPUSCULAR VOLUME” value [2] was 59.12 fL, the MONOCYTE [2] was 0.2% and the NEUTROPHIL [2] was 10.8%. The “PLATELET COUNT” value [2] was 1155.8 x10E3/uL, the “ALANINE AMINOTRANSFERASE” value [2] was 36.33 u/L and the ALBUMIN [2] was 3.72 G/DL. For the same compound, the “ALKALINE PHOSPHATASE” value [2] was 340.33 u/L, the “ASPARTATE AMINOTRANSFERASE” value [2] was 68.33 u/L and the “BLOOD UREA NITROGEN” value [2] was 15 mg/dL. For the same compound, the CHLORIDE [2] was 108.17 MEQ/L, the CHOLESTEROL [2] was 74.67 mg/dL and the “CREATINE PHOSPHOKINASE” value [2] was 110.67 u/L. It also gave a CREATININE [2] of 0.47 mg/dL, a GLUCOSE [2] of 171.33 mg/dL and a PHOSPHORUS [2] of 10.05 mg/dL. For the same compound, the POTASSIUM [2] was 6.7 MEQ/L, the SODIUM [2] was 155.5 MEQ/L and the “TOTAL PROTEIN” value [2] was 6.33 G/DL. For the same compound, the BASOPHIL [3] was 0%, the EOSINOPHIL [3] was 0.33% and the “ERYTHROCYTE COUNT” value [3] was 6.63 x10E6/uL. For the same compound, the HEMATOCRIT [3] was 40.9%, the HEMOGLOBIN [3] was 15.27 G/DL and the “LEUKOCYTE COUNT” value [3] was 15.3 x10E3/uL. The LYMPHOCYTE [3] was 87.67%, the “MEAN CORPUSCULAR HEMOGLOBIN” value [3] was 23.03 pg and the “MEAN CORPUSCULAR HEMOGLOBIN CONCENTRATION” value [3] was 37.33 G/DL. The “MEAN CORPUSCULAR VOLUME” value [3] was 61.73 fL, the MONOCYTE [3] was 0.33% and the NEUTROPHIL [3] was 11.67%. The “PLATELET COUNT” value [3] was 1320.33 x10E3/uL, the “ALANINE AMINOTRANSFERASE” value [3] was 35.67 u/L and the ALBUMIN [3] was 3.53 G/DL. For the same compound, the “ALKALINE PHOSPHATASE” value [3] was 256 u/L, the “ASPARTATE AMINOTRANSFERASE” value [3] was 57 u/L and the “BLOOD UREA NITROGEN” value [3] was 14 mg/dL. For the same compound, the CHLORIDE [3] was 106.67 MEQ/L, the CHOLESTEROL [3] was 68.67 mg/dL and the “CREATINE PHOSPHOKINASE” value [3] was 123 u/L. For the same compound, the CREATININE [3] was 0.5 mg/dL, the GLUCOSE [3] was 170 mg/dL and the PHOSPHORUS [3] was 11.27 mg/dL. The POTASSIUM [3] was 6.83 MEQ/L, the SODIUM [3] was 151.67 MEQ/L and the “TOTAL PROTEIN” value [3] was 5.93 G/DL. For the same compound, the BASOPHIL [4] was 0%, the EOSINOPHIL [4] was 0.67% and the “ERYTHROCYTE COUNT” value [4] was 7.38 x10E6/uL. For the same compound, the HEMATOCRIT [4] was 43.67%, the HEMOGLOBIN [4] was 15.73 G/DL and the “LEUKOCYTE COUNT” value [4] was 15.77 x10E3/uL. The LYMPHOCYTE [4] was 91%, the “MEAN CORPUSCULAR HEMOGLOBIN” value [4] was 21.23 pg and the “MEAN CORPUSCULAR HEMOGLOBIN CONCENTRATION” value [4] was 35.97 G/DL. For the same compound, the “MEAN CORPUSCULAR VOLUME” value [4] was 58.97 fL, the MONOCYTE [4] was 0% and the NEUTROPHIL [4] was 8.33%. The “PLATELET COUNT” value [4] was 1186 x10E3/uL, the “ALANINE AMINOTRANSFERASE” value [4] was 39 u/L and the ALBUMIN [4] was 3.77 G/DL. For the same compound, the “ALKALINE PHOSPHATASE” value [4] was 351 u/L, the “ASPARTATE AMINOTRANSFERASE” value [4] was 67.67 u/L and the “BLOOD UREA NITROGEN” value [4] was 13.67 mg/dL. The CHLORIDE [4] was 115 MEQ/L, the CHOLESTEROL [4] was 67.33 mg/dL and the “CREATINE PHOSPHOKINASE” value [4] was 110 u/L. It also gave a CREATININE [4] of 0.6 mg/dL, a GLUCOSE [4] of 194.33 mg/dL and a PHOSPHORUS [4] of 10 mg/dL. For the same compound, the POTASSIUM [4] was 6.77 MEQ/L, the SODIUM [4] was 161.67 MEQ/L and the “TOTAL PROTEIN” value [4] was 6.37 G/DL. For the same compound, the BASOPHIL [5] was 0%, the EOSINOPHIL [5] was 0% and the “ERYTHROCYTE COUNT” value [5] was 6.71 x10E6/uL. The HEMATOCRIT [5] was 40.2%, the HEMOGLOBIN [5] was 15 G/DL and the “LEUKOCYTE COUNT” value [5] was 9.93 x10E3/uL. For the same compound, the LYMPHOCYTE [5] was 94%, the “MEAN CORPUSCULAR HEMOGLOBIN” value [5] was 22.37 pg and the “MEAN CORPUSCULAR HEMOGLOBIN CONCENTRATION” value [5] was 37.33 G/DL. For the same compound, the “MEAN CORPUSCULAR VOLUME” value [5] was 59.87 fL, the MONOCYTE [5] was 0.33% and the NEUTROPHIL [5] was 5.67%. The “PLATELET COUNT” value [5] was 1314.33 x10E3/uL, the “ALANINE AMINOTRANSFERASE” value [5] was 34 u/L and the ALBUMIN [5] was 3.4 G/DL. The “ALKALINE PHOSPHATASE” value [5] was 233.33 u/L, the “ASPARTATE AMINOTRANSFERASE” value [5] was 47.33 u/L and the “BLOOD UREA NITROGEN” value [5] was 13.33 mg/dL. The CHLORIDE [5] was 107.67 MEQ/L, the CHOLESTEROL [5] was 72.67 mg/dL and the “CREATINE PHOSPHOKINASE” value [5] was 92.33 u/L. It also gave a CREATININE [5] of 0.67 mg/dL, a GLUCOSE [5] of 183.33 mg/dL and a PHOSPHORUS [5] of 11.5 mg/dL. For the same compound, the POTASSIUM [5] was 7.2 MEQ/L, the SODIUM [5] was 152.67 MEQ/L and the “TOTAL PROTEIN” value [5] was 5.53 G/DL. The BASOPHIL [6] was 0%, the EOSINOPHIL [6] was 0% and the “ERYTHROCYTE COUNT” value [6] was 7.19 x10E6/uL. The HEMATOCRIT [6] was 42.1%, the HEMOGLOBIN [6] was 14.8 G/DL and the “LEUKOCYTE COUNT” value [6] was 14.2 x10E3/uL. For the same compound, the LYMPHOCYTE [6] was 97.67%, the “MEAN CORPUSCULAR HEMOGLOBIN” value [6] was 20.57 pg and the “MEAN CORPUSCULAR HEMOGLOBIN CONCENTRATION” value [6] was 35.17 G/DL. For the same compound, the “MEAN CORPUSCULAR VOLUME” value [6] was 58.63 fL, the MONOCYTE [6] was 0% and the NEUTROPHIL [6] was 2.33%. For the same compound, the “PLATELET COUNT” value [6] was 1312.33 x10E3/uL, the “ALANINE AMINOTRANSFERASE” value [6] was 39 u/L and the ALBUMIN [6] was 3.43 G/DL. For the same compound, the “ALKALINE PHOSPHATASE” value [6] was 266 u/L, the “ASPARTATE AMINOTRANSFERASE” value [6] was 50 u/L and the “BLOOD UREA NITROGEN” value [6] was 11.67 mg/dL. For the same compound, the CHLORIDE [6] was 104 MEQ/L, the CHOLESTEROL [6] was 56 mg/dL and the “CREATINE PHOSPHOKINASE” value [6] was 95.33 u/L. It also gave a CREATININE [6] of 0.6 mg/dL, a GLUCOSE [6] of 152.67 mg/dL and a PHOSPHORUS [6] of 11.4 mg/dL. For the same compound, the POTASSIUM [6] was 6.03 MEQ/L, the SODIUM [6] was 150.67 MEQ/L and the “TOTAL PROTEIN” value [6] was 5.53 G/DL.
